# Where two headings read alike, the source gives them in different places.
# Key:
# [1] = tested on: antibiotic- and AMP-evolved strains of MG1655; settings: 1.5% H2O2, 37°C, 1 h in the dark, CFU counting
# Experimental: Bacterial cells were proportionally mixed with 3% hydrogen peroxide solution and incubated at 37°C for 1 h in the dark. The reaction was terminated by adding a catalase solution with a final concentration of 1,000 U/mL. After diluting the mixture to an appropriate gradient, the drops were carried out on LB agar plates, and then the agar plates were placed in a 37°C incubator overnight for colony counting.
# E. coli K-12 MG1655 = assay: microbe, parasite or virus in culture; format: cell-based, Escherichia coli; settings: for MIC: Escherichia coli
# Experimental: (§1) The broth microdilution method was used to measure the MIC values of antibiotics and peptides according to the Clinical and Laboratory Standards Institute guidelines. The MIC value is defined as the lowest drug concentration without visible bacteria.
# Eight antibiotics and ten AMPs at the sub-inhibitory concentration were prepared. A 300-µL system, including 260 µL of MH broth, 30 µL of prepared drug, and 10 µL of bacterial culture, was used for resistance passages. After 12 h of incubation at 37℃ and 200 rpm, 10 µL of the above bacterial culture was added into the new sterile drug-containing broth. MIC values of bacterial culture were determined. The drug concentration was adjusted according to the MIC value change until the end of the 120 passages.
# AMP120 (evolved MG1655) = assay: microbe, parasite or virus in culture; format: cell-based, Escherichia coli; settings: broth microdilution, ampicillin-evolved strain
# Description: (§2) To ensure the stable resistance evolution and inheritance of MG1655 under different drugs, we randomly selected three monoclonals from the evolved strains. The final antibiotic-evolved strains were designated as AMP120, AZI120, CHL80, CIP120, DOX120, KAN80, NIT70, and TMP30, while the final AMP-evolved strains were named COL120, Ind120, Omi120, Pex120, PGLA120, Pleu120, R8120, SAAP120, LI120, and SLAP120.
# as §1
# AZI120 (evolved MG1655) = assay: microbe, parasite or virus in culture; format: cell-based, Escherichia coli; settings: broth microdilution, azithromycin-evolved strain
# Description: as §2, §1
# CHL80 (evolved MG1655) = assay: microbe, parasite or virus in culture; format: cell-based, Escherichia coli; settings: broth microdilution, chloramphenicol-evolved strain
# Description: as §2, §1
# CIP120 (evolved MG1655) = assay: microbe, parasite or virus in culture; format: cell-based, Escherichia coli; settings: broth microdilution, ciprofloxacin-evolved strain
# Description: as §2, §1
# COL120 (evolved MG1655) = assay: microbe, parasite or virus in culture; format: cell-based, Escherichia coli; settings: broth microdilution, colistin-evolved strain
# Description: as §2, §1
# DOX120 (evolved MG1655) = assay: microbe, parasite or virus in culture; format: cell-based, Escherichia coli; settings: broth microdilution, doxycycline-evolved strain
# Description: as §2, §1
# KAN80 (evolved MG1655) = assay: microbe, parasite or virus in culture; format: cell-based, Escherichia coli; settings: broth microdilution, kanamycin-evolved strain
# Description: as §2, §1
# NIT70 (evolved MG1655) = assay: microbe, parasite or virus in culture; format: cell-based, Escherichia coli; settings: broth microdilution, nitrofurantoin-evolved strain
# Description: as §2, §1
# TMP30 (evolved MG1655) = assay: microbe, parasite or virus in culture; format: cell-based, Escherichia coli; settings: broth microdilution, trimethoprim-evolved strain
# Description: as §2, §1
molecule,measurement,setting,value
"OO [H2O2, hydrogen peroxide]",survival rate of all strains after H2O2 treatment,[1],lower than 1%
"C[C@H]1c2cccc(O)c2C(=O)C2=C(O)[C@]3(O)C(=O)C(C(N)=O)=C(O)[C@@H](N(C)C)[C@@H]3[C@@H](O)[C@@H]21 [DOX, Doxycycline]",MIC,"E. coli K-12 MG1655; MG1655, 12 h, read-out: MIC of MG1655 under the pressure of the same drug, generation 10",16 µg/mL
same,MIC,"E. coli K-12 MG1655; MG1655, read-out: MIC of MG1655 under the pressure of the same drug, generation primary",2 µg/mL
same,MIC,"E. coli K-12 MG1655; MG1655, as E2, generation 20, read-out: MIC of MG1655 under the pressure of the same drug, generation 20",32 µg/mL
same,MIC,"E. coli K-12 MG1655; MG1655, as E2, generation 30, read-out: MIC of MG1655 under the pressure of the same drug, generation 30",32 µg/mL
same,MIC,"E. coli K-12 MG1655; MG1655, as E2, generation 40, read-out: MIC of MG1655 under the pressure of the same drug, generation 40",32 µg/mL
same,MIC,"E. coli K-12 MG1655; MG1655, as E2, generation 50, read-out: MIC of MG1655 under the pressure of the same drug, generation 50",32 µg/mL
same,MIC,"E. coli K-12 MG1655; MG1655, as E2, generation 60, read-out: MIC of MG1655 under the pressure of the same drug, generation 60",32 µg/mL
same,MIC,"E. coli K-12 MG1655; MG1655, as E2, generation 70, read-out: MIC of MG1655 under the pressure of the same drug, generation 70",32 µg/mL
same,MIC,"E. coli K-12 MG1655; MG1655, as E2, generation 80, read-out: MIC of MG1655 under the pressure of the same drug, generation 80",32 µg/mL
same,MIC,"E. coli K-12 MG1655; MG1655, as E2, generation 90, read-out: MIC of MG1655 under the pressure of the same drug, generation 90",32 µg/mL
same,MIC,"E. coli K-12 MG1655; MG1655, as E2, generation 100, read-out: MIC of MG1655 under the pressure of the same drug, generation 100",32 µg/mL
same,MIC,"E. coli K-12 MG1655; MG1655, as E2, generation 110, read-out: MIC of MG1655 under the pressure of the same drug, generation 110",32 µg/mL
same,MIC,"E. coli K-12 MG1655; MG1655, as E2, generation 120, read-out: MIC of MG1655 under the pressure of the same drug, generation 120",32 µg/mL
same,MIC,"AMP120 (evolved MG1655); Escherichia coli, MG1655",2 µg/mL
same,MIC,"AZI120 (evolved MG1655); Escherichia coli, MG1655",8 µg/mL
same,MIC,"CHL80 (evolved MG1655); Escherichia coli, MG1655",16 µg/mL
same,MIC,CIP120 (evolved MG1655); Escherichia coli,16 µg/mL
same,MIC,"COL120 (evolved MG1655); Escherichia coli, MG1655",4 µg/mL
same,MIC,"DOX120 (evolved MG1655); Escherichia coli, MG1655",32 µg/mL
same,MIC,"KAN80 (evolved MG1655); Escherichia coli, MG1655",1 µg/mL
same,MIC,"NIT70 (evolved MG1655); Escherichia coli, MG1655",8 µg/mL
same,MIC,"TMP30 (evolved MG1655); Escherichia coli, MG1655",4 µg/mL
"Fatty acyl-Dab-Thr-Dab-Dab-Dab-D-Leu-Leu-Dab-Dab-Thr [COL, Colistin, cationic lipopeptide antibiotic (polymyxin), source microorganism]",evolution of resistance in MG1655 (in words),"E. coli K-12 MG1655; MG1655, sub-inhibitory drug in MH broth over 60 days",marginal increase in resistance
same,"MIC of MG1655 under the pressure of the same drug, generation 20","E. coli K-12 MG1655; as E2, generation 20",0.125 µg/mL
same,"MIC of MG1655 under the pressure of the same drug, generation 30","E. coli K-12 MG1655; as E2, generation 30",0.25 µg/mL
same,"MIC of MG1655 under the pressure of the same drug, generation 40","E. coli K-12 MG1655; as E2, generation 40",0.25 µg/mL
same,"MIC of MG1655 under the pressure of the same drug, generation 50","E. coli K-12 MG1655; as E2, generation 50",0.5 µg/mL
same,"MIC of MG1655 under the pressure of the same drug, generation 60","E. coli K-12 MG1655; as E2, generation 60",0.5 µg/mL
same,"MIC of MG1655 under the pressure of the same drug, generation 70","E. coli K-12 MG1655; as E2, generation 70",0.5 µg/mL
same,"MIC of MG1655 under the pressure of the same drug, generation 80","E. coli K-12 MG1655; as E2, generation 80",0.5 µg/mL
same,"MIC of MG1655 under the pressure of the same drug, generation 90","E. coli K-12 MG1655; as E2, generation 90",0.5 µg/mL
same,"MIC of MG1655 under the pressure of the same drug, generation 100","E. coli K-12 MG1655; as E2, generation 100",0.5 µg/mL
same,"MIC of MG1655 under the pressure of the same drug, generation 110","E. coli K-12 MG1655; as E2, generation 110",0.5 µg/mL
same,"MIC of MG1655 under the pressure of the same drug, generation 120","E. coli K-12 MG1655; as E2, generation 120",0.5 µg/mL
same,"MIC of MG1655 under the pressure of the same drug, generation primary","E. coli K-12 MG1655; broth microdilution (CLSI), primary MG1655 before passage",0.125 µg/mL
same,"MIC of MG1655 under the pressure of the same drug, generation 10","E. coli K-12 MG1655; broth microdilution, line passaged in MH broth with sub-inhibitory drug, 12 h per passage, 37℃, generation 10",0.125 µg/mL
same,"MIC values of evolved MG1655, strain AMP120",AMP120 (evolved MG1655),0.5 µg/mL
same,"MIC values of evolved MG1655, strain AZI120",AZI120 (evolved MG1655),0.5 µg/mL
same,"MIC values of evolved MG1655, strain CHL80",CHL80 (evolved MG1655),0.25 µg/mL
same,"MIC values of evolved MG1655, strain CIP120",CIP120 (evolved MG1655),0.5 µg/mL
same,"MIC values of evolved MG1655, strain COL120",COL120 (evolved MG1655),0.5 µg/mL
same,"MIC values of evolved MG1655, strain DOX120",DOX120 (evolved MG1655),0.25 µg/mL
same,"MIC values of evolved MG1655, strain KAN80",KAN80 (evolved MG1655),0.5 µg/mL
same,"MIC values of evolved MG1655, strain NIT70",NIT70 (evolved MG1655),0.5 µg/mL
same,"MIC values of evolved MG1655, strain TMP30",TMP30 (evolved MG1655),0.5 µg/mL
